The target in this experiment is Histone-lysine N-methyltransferase ASH1L (Homo sapiens, UniProt Q9NR48). Put plainly: Inhibition of MOCR-fused ASH1L SET-BAH ( 2069 to 2833 amino acids) (unknown origin) expressed as in Escherichia coli BL21 (DE3) T1R cells using SAM and chicken mono/dinucleosomes incubated for 1 hr by scintillation counting assay.

pIC50: −log10 of the molar value.

For orientation: pIC50 means the negative decadic logarithm of the IC50, by convention in mol/L.

In the case of `NC(=S)c1cccc(-c2cn(C3CCN(S(=O)(=O)CCNC(=O)COc4cccc5c4C(=O)N(C4CCC(=O)NC4=O)C5=O)CC3)c3cc(CNc4nnc(N)s4)ccc23)c1` (configuration not stated), the pIC50 was > 4.70.
To `CC(O)Cn1cc(-c2cccc(C(N)=S)c2)c2ccccc21` (configuration not stated) belongs 4.00 to 4.70.
For `Cc1nc(CS(=O)(=O)NCc2ccc3c(-c4cccc(C(N)=S)c4)cn(C4CCN(S(C)(=O)=O)CC4)c3c2)cs1` the value was > 4.70; for `NC(=S)c1cccc(-c2cn(CCCC(F)(F)F)c3cc(N)ccc23)n1`, > 4.70; for `COC(=O)c1ccc2c(-c3cccc(C(N)=S)c3)c[nH]c2c1`, 4.00 to 4.70.
To `Cc1cc(-c2cccc(C(N)=S)c2)ccc1O` belongs < 4.00.
As for `CCOc1c[nH]c(CC(=O)NCc2ccc3c(-c4cccc(C(N)=S)c4)cn(C4CCN(S(C)(=O)=O)CC4)c3c2)c1`, the pIC50 is > 4.70.
Consider `COc1c(C(N)=S)cccc1-c1ccc(O)cc1`, for which the pIC50 is < 4.00.
For `NC(=S)c1cccc(-c2cn(CCCC(F)(F)F)c3ccc(N)cc23)c1` the value was 4.00 to 4.70; for `CS(=O)(=O)N1CCC(n2cc(-c3cccc(C(N)=S)c3)c3ccc(N)cc32)CC1`, > 4.70; for `NC(=S)c1cccc(-c2ccccn2)c1`, < 4.00.
To `Cc1ccc(C(N)=S)cc1-c1ccc(O)cc1` belongs < 4.00; to `NC(=S)c1cccc(-c2cn(CCCC(F)(F)F)c3cc(CNC(=O)CCc4c[nH]cn4)ccc23)c1`, > 4.70; to `NC(=S)c1cccc(-c2cc(C(F)(F)F)cc3c2ccn3CCO)c1`, 4.00 to 4.70.
As to `CCCS(=O)(=O)N1CCC(n2cc(-c3cccc(C(N)=S)c3)c3ccc(CNC(=O)Cc4cc(C)[nH]n4)cc32)CC1`, the pIC50 was > 4.70.
To `NC(=S)c1cccc(-c2cn(CC3C(F)(F)C3(F)F)c3cc(CO)ccc23)c1` belongs > 4.70.
For `CN1c2ccccc2CCc2ccc(C(N)=S)cc21` the value was < 4.00.
To `NC(=S)c1cccc(-c2cc(CC(CF)CF)c3cc[nH]c3c2)c1` belongs > 4.70.
Molecule `NC(=S)c1cccc(-c2c[nH]c3cc(CNC=O)ccc23)c1` gave a pIC50 of 4.00 to 4.70.
The molecule `NC(=S)c1cccc(-c2cn(CCO)c3cc([N+](=O)[O-])ccc23)c1` had a pIC50 of 4.00 to 4.70.
For `CC1(Cn2cc(-c3cccc(C(N)=S)c3)c3ccc(CO)cc32)CC1` the value was > 4.70; for `NC(=S)c1cccc(-c2cn(CCCC(F)(F)F)c3cc(CNC(=O)Cc4csc(N)n4)ccc23)c1`, > 4.70; for `NCc1ccc2c(-c3cccc(C(N)=S)c3)cn(CCO)c2c1`, 4.89.
For `NCCn1cc(-c2cccc(C(N)=S)c2)c2ccccc21` the value was 4.66.
For `NC(=S)c1cccc(-c2ccc(O)c3c2CCC3O)c1` (configuration not stated) the value was < 4.00.
As to `Cc1cc(O)ccc1-c1cccc(C(N)=S)c1`, the pIC50 was < 4.00.
To `NC(=S)c1cccc(-c2cn(C3CCOCC3)c3cc(-c4ccn[nH]4)ccc23)c1` belongs > 4.70; to `CS(=O)(=O)N1C2CCC1CC(n1cc(-c3cccc(C(N)=S)c3)c3ccc(N)cc31)C2` (configuration not stated), > 4.70; to `NC(=O)c1cc(-c2cn(CCC(F)F)c3cc(CO)ccc23)ccc1O`, > 4.70.
In the case of `NC(=S)c1cc(-c2c[nH]c3ccccc23)ccc1N`, the pIC50 is < 4.00.
To `NC(=S)c1cccc(-c2cn(CCC(F)F)c3cc4cc[nH]c4cc23)c1` belongs > 4.70.
To `NC(=S)c1cccc(-c2cn(CCC(F)(F)F)c3cc(N)ccc23)c1` belongs > 4.70; to `O=C1NCc2c1cccc2-c1ccc(O)cc1`, < 4.00.
To `CC(O)c1ccc2c(-c3cccc(C(N)=S)c3)cn(CCC(F)F)c2c1` (configuration not stated) belongs > 4.70.
As to `NC(=S)c1cccc(-c2cn(CC3CC(O)C(O)C3)c3cc(CO)ccc23)c1` (configuration not stated), the pIC50 was > 4.70.
For `NC(=S)c1cc(F)cc(-c2ccc(O)cc2)c1` the value was < 4.00; for `CCn1ccc2c(-c3cccc(C(N)=S)c3)cccc21`, < 4.00; for `NC(=S)c1cccc(-c2cn(Cc3ccc[nH]3)c3cc(CO)ccc23)c1`, > 4.70.
To `NC(=S)c1cccc(-c2cn(CC(CO)(C(F)F)C(F)F)c3cc(C(O)CC(F)F)ccc23)c1` (configuration not stated) belongs > 4.70; to `NC(=S)c1cccc(-c2cn(CC(CCF)CC(F)F)c3cc(N)ccc23)c1` (configuration not stated), > 4.70.
For `NC(=S)c1cccc(-c2cn(CC(C(F)F)C(F)F)c3cc(C(O)CCF)ccc23)c1` (configuration not stated) the value was > 4.70; for `Cc1cc(C(N)=S)cc(-c2ccc(O)cc2)c1`, < 4.00.
`NC(=S)c1cccc(-c2cccc3[nH]c(CNCCCO)cc23)c1`: the pIC50 is < 4.00.
To `NC(=S)c1cccc(-c2cn(CCCC(F)(F)F)c3cc(CNC(=O)c4cscn4)ccc23)c1` belongs > 4.70.
Turning to `NC(=S)c1ccnc(-c2cn(CCC(F)F)c3cc(CO)ccc23)c1`, the pIC50 is > 4.70.
For `NC(=O)c1cccc(-c2cn(CCC(F)F)c3cc(CO)ccc23)c1` the value was > 4.70.
To `CS(=O)(=O)N1CCC(n2cc(-c3cccc(C(N)=S)c3)c3ccc(CNc4nnc(N)s4)cc32)CC1` belongs > 4.70; to `CCCS(=O)(=O)N1CCC(n2cc(-c3cccc(C(N)=S)c3)c3ccc(CNC(=O)COc4cccc5c4C(=O)N(C4CCC(=O)NC4=O)C5=O)cc32)CC1` (configuration not stated), > 4.70; to `NC(=S)c1cccc(-c2cn(CC3(O)CCC3)c3cc(CO)ccc23)c1`, > 4.70.
To `CC(=O)NCc1ccc2c(-c3cccc(C(N)=S)c3)c[nH]c2c1` belongs 4.00 to 4.70; to `CS(=O)(=O)N1CCC(n2cc(-c3cccc(C(N)=S)c3)c3ccc(CNC(=O)Cc4ccc[nH]4)cc32)CC1`, > 4.70.
Turning to `NC(=S)c1cccc(-c2cc(CCC(F)F)c3cc[nH]c3c2)c1`, the pIC50 is > 4.70.
For `Cc1cc2c(-c3cccc(C(N)=S)c3)cccc2[nH]1` the value was < 4.00.
To `NC(=S)c1cccc(-c2cccc3[nH]c(CSP(=S)(c4ccccc4)c4ccccc4)cc23)c1` belongs < 4.00.
As to `NC(=S)c1cccc(-c2cn(CC(CF)CF)c3cc(C(O)CO)ccc23)c1` (configuration not stated), the negative logarithm of the IC50 (pIC50) was > 4.70.
For `NC(=S)c1cccc(-n2cc(CC(CF)CF)c3cc(CO)ccc32)c1`, the pIC50 is > 4.70.
To `CS(=O)(=O)NCc1ccc2c(-c3cccc(C(N)=S)c3)cn(CCCC(F)(F)F)c2c1` belongs > 4.70; to `NC(=S)c1cccc(-c2c[nH]c3cnc(N)cc23)c1`, < 4.00.
As to `Cc1ncsc1-c1ccc(CNC(=O)[C@@H]2C[C@@H](O)CN2C(=O)[C@@H](NC(=O)COCCOCCNC(=O)CCC(=O)Nc2ccc3c(-c4cccc(C(N)=S)c4)cn(CC(CF)CF)c3c2)C(C)(C)C)cc1`, the pIC50 was > 4.70.
For `CCCn1cncc1CC(=O)NCc1ccc2c(-c3cccc(C(N)=S)c3)cn(C3CCN(S(=O)(=O)CCC)CC3)c2c1` the value was > 4.70; for `NC(=S)c1cccc(-c2cn(CC(C(F)F)C(F)F)c3cc(CO)ccc23)c1`, > 4.70.
For `NC(=S)c1cc(-c2cn(CCC(F)F)c3cc(CO)ccc23)ccn1` the value was > 4.70; for `CCCS(=O)(=O)N1CCC(n2cc(-c3cccc(C(N)=S)c3)c3ccc(CNc4nnc(N)s4)cc32)CC1`, > 4.70.
To `NC(=S)c1cccc(-n2cc(N3CCCCC3)c3cc(CO)ccc32)c1` belongs > 4.70; to `NC(=S)c1cccc(-c2cn(C3CCOCC3)c3cc(N)ccc23)c1`, > 4.70; to `NC(=S)c1cccc(-c2cn(Cc3cnc[nH]3)c3cc(CO)ccc23)c1`, > 4.70.
Consider `NC(=S)c1cc(-c2cn(CCC(F)F)c3cc(CO)ccc23)c2[nH]cnc2c1`, for which the pIC50 is > 4.70.
To `NC(=S)c1cccc(-c2cn(CCC(F)F)c3cc(CF)ccc23)c1` belongs > 4.70; to `CCCn1cnc(CC(=O)NCc2ccc3c(-c4cccc(C(N)=S)c4)cn(C4CCN(S(=O)(=O)CCC)CC4)c3c2)c1`, > 4.70.
For `CC(O)c1ccc2c(-c3cccc(C(N)=S)c3)cn(CC(CF)CF)c2c1` (configuration not stated) the value was > 4.70.
`COc1cc(C(N)=S)cc(-c2cccc3[nH]ccc23)c1`: the pIC50 was < 4.00.
For `NC(=S)c1cccc(-c2cc(CC(CF)CF)c3[nH]ccc3c2)c1` the value was > 4.70; for `NC(=S)c1cc(-c2cn(CCC(F)F)c3cc(CO)ccc23)c2ocnc2c1`, > 4.70.
For `NC(=S)c1cccc(-c2cn(CCC(F)F)c3cc(N)ccc23)c1` the value was > 4.70.
As to `NC(=S)c1cccc(-c2cn(CC3CCCC3)c3cc(N)ccc23)c1`, the pIC50 is > 4.70.
For `NC(=S)c1cc(-c2cn(CCC(F)F)c3cc(CO)ccc23)ccc1O` the value was > 4.70.
For `NC(=S)c1cccc(-c2cn(CC(CF)CF)c3cc(NCCc4c[nH]cn4)ccc23)c1` the value was > 4.70; for `OCc1ccc2c(-c3cccc4c3CNC4=S)cn(CCC(F)F)c2c1`, > 4.70.
To `NC(=S)c1cccc(-c2ccc(O)cc2)c1` belongs < 4.00; to `NC(=S)c1ccc(F)c(-c2cn(CCCC(F)(F)F)c3cc(N)ccc23)c1`, > 4.70; to `NC(=O)c1ccc2c(-c3cccc(C(N)=S)c3)c[nH]c2c1`, < 4.00.
Turning to `NC(=S)c1cccc(-c2cn(CC(=O)C(F)(F)F)c3cc(CO)ccc23)c1`, the pIC50 was > 4.70.
For `Cc1[nH]c2ccccc2c1-c1cccc(C(N)=S)c1` the value was < 4.00; for `NC(=S)c1cccc(-c2cn(CC(CO)C(F)F)c3cc(CO)ccc23)c1` (configuration not stated), > 4.70.
To `Cn1ccc2c(-c3cccc(C(N)=S)c3)cccc21` belongs 4.00 to 4.70; to `NC(=S)c1cncc(-c2ccc(O)cc2)c1`, < 4.00; to `NC(=S)c1cccc(-c2ccc(O)c3c2CCC3=O)c1`, < 4.00.
Take `NC(=S)c1cccc(-c2cccc3[nH]c(CNCc4ccccc4)cc23)c1`: the pIC50 was < 4.00.
To `NC(=S)c1cccc(-c2c[nH]c3c(CO)cccc23)c1` belongs 4.00 to 4.70; to `NC(=S)c1cccs1`, < 4.00; to `Cc1cc2c(-c3cccc(C(N)=S)c3)cccc2n1C`, < 4.00.
For `NC(=S)c1cccc(-c2cc(C(F)(F)F)cc3c2ccn3CC(F)(F)F)c1` the value was 4.00 to 4.70.

(Values after ChEMBL document CHEMBL4482324, “Ash1l inhibitors and methods of treatment therewith” (2017).)
